“And” between values parts separate entries of the source, which are not always exact repeats. Identical values can stand only once. Like-named read-outs stand apart in the source and are kept apart here.
Molecular target: T1, rat PTP1 (Rattus norvegicus, UniProt P20417)
T1 construct: a C-terminal truncation of rat PTP1 (amino acid residues 1-322); GST (N, cleaved yes); made in house; host or cells: E. coli strain TG-1 (pGEX-2T)
T1 sequence (P20417 1-322): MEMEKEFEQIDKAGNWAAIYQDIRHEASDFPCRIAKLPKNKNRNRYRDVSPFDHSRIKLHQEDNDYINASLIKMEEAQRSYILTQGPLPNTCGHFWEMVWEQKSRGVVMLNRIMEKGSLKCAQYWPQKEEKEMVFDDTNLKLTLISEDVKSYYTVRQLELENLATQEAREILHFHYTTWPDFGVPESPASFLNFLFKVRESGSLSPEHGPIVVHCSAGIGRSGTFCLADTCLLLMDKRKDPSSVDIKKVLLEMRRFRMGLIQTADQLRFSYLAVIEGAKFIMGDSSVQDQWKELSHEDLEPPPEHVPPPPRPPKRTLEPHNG
Assay: PTP1 assay, pNPP hydrolysis (rate of change in A405)
Assay type: biochemical
Description: PTP1 Assays: A construct, which consisted of a C-terminal truncation of rat PTP1 (amino acid residues 1-322) (cloned from a rat brain library) with an N-terminal glutathione S-transferase (GST) tag and an adjacent thrombin cleavage site, was inserted into vector plasmid pGEX-2T and transformed into E. coli strain TG-1 under the control of a lac promoter (K. L. Guan and J. E. Dixon (1991) Eukaryotic proteins expressed in Escherichia coli: an improved thrombin cleavage and purification procedure of fusion proteins with glutathione S-transferase. Analyt. Biochem. 192: 262-267). The GST-fusion protein was purified on a glutathione agarose affinity column, the GST tag was cleaved with thrombin, and the active enzyme was recovered for use in an assay to identify PTP inhibitors.
PTP1 activity is measured using either p-nitrophenol phosphate (pNPP) or a triphosphopeptide (that matches residues 1142 through 1153 of the β-subunit and the insulin receptor) as substrate in a 96-well microtiter plate format. An assay pH of 7.2 is used for standard assays (measured 405=9800 at pH 7.2).
Standard assays are conducted at room temperature in a total volume of 0.2 ml that contains Hepes buffer (50 mM, pH 7.2), NaCl (50 mM), EDTA (1 mM), DTT (1 mM), bovine serum albumin (1 mg/ml), pNPP (1 mM) and PTP1 (35 ng/ml). Compounds (2 μl of 10 mM solutions) are pipetted into wells of microtiter plates followed by 198 μl of premixed reaction mix (with PTP1 and pNPP added immediately before use). The rate of change in A405 is recorded for 60 min. Two wells on each plate contain DMSO controls and two wells contain sodium orthovanadate (1 mM) which inhibits PTP1-catalyzed hydrolysis of pNPP completely. Data are expressed as percent inhibition relative to the average of the DMSO controls measured on the same microtiter plate.

[1] = Conc 1 uM, pNPP hydrolysis, Table 1, read-out: PTP1 Inhib % Inhib
[2] = Conc 10 uM, pNPP hydrolysis, Table 1, read-out: PTP1 Inhib % Inhib
[3] = Conc 100 uM, pNPP hydrolysis, Table 1, read-out: PTP1 Inhib % Inhib
[4] = Conc 1 uM, pNPP hydrolysis, Table 2, read-out: PTP1 Inhib PTP1N. % Inhib
[5] = Conc 10 uM, pNPP hydrolysis, Table 2, read-out: PTP1 Inhib PTP1N. % Inhib
[6] = Conc 100 uM, pNPP hydrolysis, Table 2, read-out: PTP1 Inhib PTP1N. % Inhib
[7] = Conc 1 uM, pNPP hydrolysis, Table 1
[8] = Conc 100 uM, pNPP hydrolysis, Table 1
[9] = inhibition of pNPP-hydrolysis, compound concentration 1 μM, read-out: % Inhibition
[10] = inhibition of pNPP-hydrolysis, compound concentration 10 μM, read-out: % Inhibition
[11] = inhibition of pNPP-hydrolysis, compound concentration 100 μM, read-out: % Inhibition

| Structure (SMILES) | inhibition at 1 µM [1] [%] | inhibition at 10 µM [2] [%] | inhibition at 100 µM [3] [%] | further results |
| --- | --- | --- | --- | --- |
| O=C(O)CCC(=O)N[C@@H](Cc1ccc(OC(C(=O)O)C(=O)O)cc1)C(=O)NCCC(c1ccccc1)c1ccccc1 | 0 | 3 | 45 |  |
| CCCCCNC(=O)C(Cc1ccc(OC(COO)COO)cc1)NC(=O)NCC(=O)NCC(=O)O (stereo not drawn) |  |  |  | inhibition at 1 µM [4]: 12%; inhibition at 10 µM [5]: 56%; inhibition at 100 µM [6]: 93% |
| CCCCCNC(=O)C(Cc1ccc(OCC(=O)O)c(COO)c1)NC(=O)CCC(=O)O (stereo not drawn) | 17 | 63 | 93 |  |
| CCCCCNC(=O)[C@H](Cc1ccc(OC(C(=O)O)C(=O)O)cc1)NC(=O)CCC(N)=O | 0 | 11 | 51 |  |
| CCOC(CNC(=O)[C@H](Cc1ccc(OC(C(=O)O)C(=O)O)cc1)NC(=O)CCC(=O)O)OCC | 0 | 7 | 46 |  |
| CCCCCNC(=O)C(Cc1ccc(OC(=CCOO)COO)cc1)NC(=O)CCC(=O)O (stereo not drawn) | 0 | 9 | 50 |  |
| CCCCCNC(=O)C(Cc1ccc(OC(COO)COO)cc1)NC(=O)CCC(=O)O (stereo not drawn) [drawing 81] |  |  |  | PTP1 Inhib % Inhib [7]: 1%; PTP1 Inhib % Inhib (Conc 10 uM, pNPP hydrolysis, Table 1): 25%; PTP1 Inhib % Inhib [8]: 81% and 76% |
| CCCCCNC(=O)C(Cc1ccc(OC(COO)COO)cc1)NC(=O)C(Cc1ccc(OC)cc1)NC(=O)CCC(=O)O (stereo not drawn) |  |  |  | inhibition at 1 µM [4]: 32%; inhibition at 10 µM [5]: 83%; inhibition at 100 µM [6]: 98% |
| CC(C)(C)OC(=O)N[C@@H](Cc1ccccc1)C(=O)N[C@@H](Cc1ccc(OCC(=O)O)c(C(=O)O)c1)C(=O)NCCCc1ccccc1 [Example 157-1, 5-{(2S)-2-({(2S)-2-[(tert-Butoxycarbonyl)amino]-3-phenylpropanoyl}amino)-3-oxo-3-[(3-phenylpropyl)amino]propyl}-2-(carboxymethoxy)benzoic Acid] |  |  |  | inhibition at 1 µM [9]: 39%; inhibition at 10 µM [10]: 84%; inhibition at 100 µM [11]: 97% |
| CCCCCNC(=O)[C@H](Cc1ccc(OC(C(=O)O)C(=O)O)cc1)NC(=O)C1C(C(=O)O)[C@@H]2CC[C@@H]1C2 (stereo partly drawn) | 0 | 4 | 37 |  |
| CCCCCNC(=O)C(Cc1ccc(OC(COO)COO)cc1)NC(=O)C(Cc1ccc(OCc2ccccc2)cc1)N(C)C(=O)OC(C)(C)C (stereo not drawn) |  |  |  | inhibition at 1 µM [4]: 0%; inhibition at 10 µM [5]: 0%; inhibition at 100 µM [6]: 32% |
| CCCCCNC(=O)[C@H](Cc1ccc(OC(C(=O)O)C(=O)O)cc1)NC(=O)COCC(=O)O | 3 | 12 | 53 |  |
| O=C(O)CCC(=O)NC(Cc1ccc(C(=O)c2ccccc2)cc1)C(=O)NCCc1ccc(OC(COO)COO)cc1 (stereo not drawn) |  |  |  | inhibition at 1 µM [4]: 1%; inhibition at 10 µM [5]: 13%; inhibition at 100 µM [6]: 60% |
| CCCCCNC(=O)C(Cc1ccc(OC(COO)COO)cc1)NC(=O)C(Cc1ccc(C(=O)c2ccccc2)cc1)NC(=O)CCc1ccc(O)cc1 (stereo not drawn) |  |  |  | inhibition at 1 µM [4]: 9%; inhibition at 10 µM [5]: 47%; inhibition at 100 µM [6]: 89% |
| CCCCCNC(=O)[C@H](Cc1ccc(OC(C(=O)O)C(=O)O)cc1)NC(=O)C1C2CCC(CC2)C1C(=O)O (stereo partly drawn) | 4 | 5 | 41 |  |
| CCCCCNC(=O)[C@H](Cc1ccc(OC(C(=O)O)C(=O)O)cc1)NC(=O)CC(=O)O | 4 | 20 | 74 |  |
| CCCCCNC(=O)C(Cc1ccc(OC(C(=O)O)C(=O)O)cc1)NC(=O)C(CC(=O)O)NC(=O)OC(C)(C)C (stereo not drawn) | 16 | 62 | 94 |  |
| CC(C)(C)OC(=O)N[C@@H](Cc1ccccc1)C(=O)N[C@@H](Cc1ccc(OCC(=O)O)c(C(=O)O)c1)C(=O)NOCCCc1ccccc1 [Example 157-28, 5-{(2S)-2-({(2S)-2-[(tert-Butoxycarbonyl)amino]-3-phenylpropanoyl}amino)-3-oxo-3-[(3-phenylpropoxy)amino]propyl}-2-(carboxymethoxy)benzoic Acid] |  |  |  | Ki (calculated from IC50-values obtained from a dose-response curve using the inhibition assay): 400 nM |
| O=C(O)CCC(=O)N[C@@H](Cc1ccc(OC(C(=O)O)C(=O)O)cc1)C(=O)NCCCn1ccnc1 | 2 | 3 | 26 |  |
| CCCCCNC(=O)C(Cc1ccc(OS(=O)(=O)O)cc1)NC(=O)CCC(=O)O (stereo not drawn) | 3 | 8 | 80 |  |
| CCCCCNC(=O)[C@H](Cc1ccc(OC(C(=O)O)C(=O)O)cc1)NC(=O)C(CC(=O)O)NC(=O)CCC(=O)O (stereo partly drawn) | 27 | 75 | 96 |  |
| CC(C)CCNC(=O)[C@H](Cc1ccc(OC(C(=O)O)C(=O)O)cc1)NC(=O)CCC(=O)O | 0 | 6 | 48 |  |
| O=C(O)COc1ccc(C[C@H](NC(=O)c2ccc(Cl)cc2)C(=O)NCCCCc2ccc(Cl)cc2)cc1C(=O)O [Example 154-20, 2-(carboxymethoxy)-5-((2S)-2-[(4-chlorobenzoyl)amino]-3-{[4-(4-chlorophenyl)butyl]amino}-3-oxopropyl)benzoic acid] |  |  |  | inhibition at 1 µM [9]: 27%; inhibition at 10 µM [10]: 79%; inhibition at 100 µM [11]: 98% |
| CC(C)(C)OC(=O)N[C@@H](Cc1ccccc1)C(=O)N[C@@H](Cc1ccc(OCC(=O)O)c(C(=O)O)c1)C(=O)NCCCCc1ccccc1 [Example 157-2, 5-{(2S)-2-({(2S)-2-[(tert-Butoxycarbonyl)amino]-3-phenylpropanoyl}amino)-3-oxo-3-[(4-phenylbutyl)amino]propyl}-2-(carboxymethoxy)benzoic Acid] |  |  |  | inhibition at 1 µM [9]: 64%; inhibition at 10 µM [10]: 93%; inhibition at 100 µM [11]: 98% |
| CCCCCNC(=O)C(Cc1ccc(OC(COO)COO)cc1)NC(=O)C(Cc1ccc(C(=O)c2ccccc2)cc1)NC(=O)CCC(=O)O (stereo not drawn) [drawing 139] |  |  |  | inhibition at 1 µM [4]: 4%; inhibition at 10 µM [5]: 13%; inhibition at 100 µM [6]: 54% |
| O=C(O)CCC(=O)N[C@@H](Cc1ccc(OC(C(=O)O)C(=O)O)cc1)C(=O)NCC1CCCCC1 | 0 | 21 | 73 |  |
| CCCCCNC(=O)[C@H](Cc1ccc(OC(C(=O)O)C(=O)O)cc1)NC(=O)[C@H](CCC(=O)O)NC(=O)CCC(=O)O | 25 | 76 | 96 |  |
| CCCCCNC(=O)[C@H](Cc1ccc(CC(C(=O)O)C(=O)O)cc1)NC(=O)CCC(=O)O | 0 | 3 | 34 |  |

The next lines start with results.

| inhibition at 1 µM [1] [%] | inhibition at 10 µM [2] [%] | inhibition at 100 µM [3] [%] | Structure (SMILES) | further results |
| --- | --- | --- | --- | --- |
| 17 | 64 | 94 | CCCCCNC(=O)C(Cc1ccc(OC(COO)COO)cc1)NC(=O)NC(CCC(=O)O)C(=O)O (stereo not drawn) |  |
| 2 | 21 | 72 | CCCCCNC(=O)C(Cc1ccc(OC(COO)COO)cc1)NC(=O)NCCC(=O)O (stereo not drawn) | PTP1 Inhib % Inhib [7]: 3%; PTP1 Inhib % Inhib [8]: 74% |
| 3 | 14 | 56 | O=C(O)CCC(=O)NC(Cc1ccc(OC(COO)COO)cc1)C(=O)NCc1ccc(C(=O)O)cc1 (stereo not drawn) |  |
| 8 | 23 | 72 | O=C(O)CCC(=O)NC(Cc1ccc(OC(COO)COO)cc1)C(=O)NCCCc1ccccc1 (stereo not drawn) |  |
| 4 | 15 | 66 | O=C(O)CCC(=O)NC(Cc1ccc(OC(COO)COO)cc1)C(=O)NCc1ccc(C(F)(F)F)cc1 (stereo not drawn) |  |
| 8 | 34 | 81 | CCCCCNC(=O)C(Cc1ccc(OC(COO)COO)cc1)NC(=O)Nc1ccc(C(=O)O)cc1 (stereo not drawn) |  |
| 1 | 13 | 57 | O=C(O)CCC(=O)NC(Cc1ccc(OC(COO)COO)cc1)C(=O)NCCOc1ccccc1 (stereo not drawn) |  |

Reference: patent publication US6410585B1, “Inhibitors of protein tyrosine phosphatase” (priority 1997, dated 2002)
